Measured values published in PMC3710292 (Cellular and molecular life sciences : CMLS, 2013).

Legend:
Assay type in all cases: cell-based
[1] = target: TRPM7 Δ-kinase (Homo sapiens, UniProt Q96QT4); assay: whole-cell patch clamp, current at +[…] mV
[2] = target: human TRPM6 (hTRPM6) (Homo sapiens, UniProt Q9BX84); assay: whole-cell patch clamp, current at +[…] mV, […] s; details: intracellular iodide 154 mM; no intracellular Mg2+; pH 7.2
[3] = target: human TRPM7 (Homo sapiens, UniProt Q96QT4); assay: whole-cell patch clamp, current at +[…] mV
human TRPM7, sequence (Q96QT4 whole entry): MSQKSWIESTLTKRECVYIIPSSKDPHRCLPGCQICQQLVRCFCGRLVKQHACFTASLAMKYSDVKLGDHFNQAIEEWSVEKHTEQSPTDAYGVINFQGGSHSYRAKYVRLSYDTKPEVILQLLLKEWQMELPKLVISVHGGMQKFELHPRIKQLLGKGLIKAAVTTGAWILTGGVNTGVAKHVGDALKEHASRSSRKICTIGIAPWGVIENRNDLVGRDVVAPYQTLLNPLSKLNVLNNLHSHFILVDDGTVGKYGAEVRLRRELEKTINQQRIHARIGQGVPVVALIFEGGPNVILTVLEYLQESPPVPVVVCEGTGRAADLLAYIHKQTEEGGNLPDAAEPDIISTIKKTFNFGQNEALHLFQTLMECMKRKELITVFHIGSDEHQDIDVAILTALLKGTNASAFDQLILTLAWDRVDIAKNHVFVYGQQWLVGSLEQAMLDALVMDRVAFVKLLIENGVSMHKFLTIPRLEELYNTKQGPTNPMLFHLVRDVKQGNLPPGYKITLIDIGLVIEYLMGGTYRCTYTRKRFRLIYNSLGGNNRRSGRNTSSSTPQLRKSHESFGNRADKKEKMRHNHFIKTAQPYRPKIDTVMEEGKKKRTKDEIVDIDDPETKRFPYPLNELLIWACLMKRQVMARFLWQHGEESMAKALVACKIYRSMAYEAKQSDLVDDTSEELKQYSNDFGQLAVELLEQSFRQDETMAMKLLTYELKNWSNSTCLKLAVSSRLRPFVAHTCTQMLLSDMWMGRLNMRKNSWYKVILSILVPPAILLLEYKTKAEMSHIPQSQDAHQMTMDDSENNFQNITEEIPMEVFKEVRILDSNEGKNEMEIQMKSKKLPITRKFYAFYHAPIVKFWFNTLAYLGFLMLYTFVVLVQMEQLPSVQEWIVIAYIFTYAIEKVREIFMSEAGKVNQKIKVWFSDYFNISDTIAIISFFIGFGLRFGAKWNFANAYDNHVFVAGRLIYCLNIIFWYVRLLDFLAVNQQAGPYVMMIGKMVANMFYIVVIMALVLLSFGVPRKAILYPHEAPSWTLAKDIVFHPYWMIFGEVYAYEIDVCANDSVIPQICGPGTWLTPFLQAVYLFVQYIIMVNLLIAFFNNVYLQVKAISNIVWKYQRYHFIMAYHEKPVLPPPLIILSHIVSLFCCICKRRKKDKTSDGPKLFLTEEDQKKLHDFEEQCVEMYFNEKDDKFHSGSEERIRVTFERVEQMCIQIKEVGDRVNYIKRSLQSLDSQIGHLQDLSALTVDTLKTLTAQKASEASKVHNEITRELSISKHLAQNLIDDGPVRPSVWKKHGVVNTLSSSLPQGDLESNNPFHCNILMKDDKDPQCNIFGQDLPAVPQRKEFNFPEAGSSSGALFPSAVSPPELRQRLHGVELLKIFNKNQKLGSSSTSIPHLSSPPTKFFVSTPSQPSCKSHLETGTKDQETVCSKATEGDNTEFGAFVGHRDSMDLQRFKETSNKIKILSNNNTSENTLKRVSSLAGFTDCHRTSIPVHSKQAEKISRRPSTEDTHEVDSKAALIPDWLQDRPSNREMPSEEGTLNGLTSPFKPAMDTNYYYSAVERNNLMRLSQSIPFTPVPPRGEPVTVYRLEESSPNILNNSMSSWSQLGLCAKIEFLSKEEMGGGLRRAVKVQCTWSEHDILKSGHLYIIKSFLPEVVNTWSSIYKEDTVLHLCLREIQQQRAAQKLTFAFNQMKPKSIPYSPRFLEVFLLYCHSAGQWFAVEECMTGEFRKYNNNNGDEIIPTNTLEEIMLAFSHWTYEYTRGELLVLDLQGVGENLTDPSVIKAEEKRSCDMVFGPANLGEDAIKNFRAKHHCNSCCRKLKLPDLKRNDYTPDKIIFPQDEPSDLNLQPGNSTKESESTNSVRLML

human TRPM6 (hTRPM6), sequence (Q9BX84 whole entry): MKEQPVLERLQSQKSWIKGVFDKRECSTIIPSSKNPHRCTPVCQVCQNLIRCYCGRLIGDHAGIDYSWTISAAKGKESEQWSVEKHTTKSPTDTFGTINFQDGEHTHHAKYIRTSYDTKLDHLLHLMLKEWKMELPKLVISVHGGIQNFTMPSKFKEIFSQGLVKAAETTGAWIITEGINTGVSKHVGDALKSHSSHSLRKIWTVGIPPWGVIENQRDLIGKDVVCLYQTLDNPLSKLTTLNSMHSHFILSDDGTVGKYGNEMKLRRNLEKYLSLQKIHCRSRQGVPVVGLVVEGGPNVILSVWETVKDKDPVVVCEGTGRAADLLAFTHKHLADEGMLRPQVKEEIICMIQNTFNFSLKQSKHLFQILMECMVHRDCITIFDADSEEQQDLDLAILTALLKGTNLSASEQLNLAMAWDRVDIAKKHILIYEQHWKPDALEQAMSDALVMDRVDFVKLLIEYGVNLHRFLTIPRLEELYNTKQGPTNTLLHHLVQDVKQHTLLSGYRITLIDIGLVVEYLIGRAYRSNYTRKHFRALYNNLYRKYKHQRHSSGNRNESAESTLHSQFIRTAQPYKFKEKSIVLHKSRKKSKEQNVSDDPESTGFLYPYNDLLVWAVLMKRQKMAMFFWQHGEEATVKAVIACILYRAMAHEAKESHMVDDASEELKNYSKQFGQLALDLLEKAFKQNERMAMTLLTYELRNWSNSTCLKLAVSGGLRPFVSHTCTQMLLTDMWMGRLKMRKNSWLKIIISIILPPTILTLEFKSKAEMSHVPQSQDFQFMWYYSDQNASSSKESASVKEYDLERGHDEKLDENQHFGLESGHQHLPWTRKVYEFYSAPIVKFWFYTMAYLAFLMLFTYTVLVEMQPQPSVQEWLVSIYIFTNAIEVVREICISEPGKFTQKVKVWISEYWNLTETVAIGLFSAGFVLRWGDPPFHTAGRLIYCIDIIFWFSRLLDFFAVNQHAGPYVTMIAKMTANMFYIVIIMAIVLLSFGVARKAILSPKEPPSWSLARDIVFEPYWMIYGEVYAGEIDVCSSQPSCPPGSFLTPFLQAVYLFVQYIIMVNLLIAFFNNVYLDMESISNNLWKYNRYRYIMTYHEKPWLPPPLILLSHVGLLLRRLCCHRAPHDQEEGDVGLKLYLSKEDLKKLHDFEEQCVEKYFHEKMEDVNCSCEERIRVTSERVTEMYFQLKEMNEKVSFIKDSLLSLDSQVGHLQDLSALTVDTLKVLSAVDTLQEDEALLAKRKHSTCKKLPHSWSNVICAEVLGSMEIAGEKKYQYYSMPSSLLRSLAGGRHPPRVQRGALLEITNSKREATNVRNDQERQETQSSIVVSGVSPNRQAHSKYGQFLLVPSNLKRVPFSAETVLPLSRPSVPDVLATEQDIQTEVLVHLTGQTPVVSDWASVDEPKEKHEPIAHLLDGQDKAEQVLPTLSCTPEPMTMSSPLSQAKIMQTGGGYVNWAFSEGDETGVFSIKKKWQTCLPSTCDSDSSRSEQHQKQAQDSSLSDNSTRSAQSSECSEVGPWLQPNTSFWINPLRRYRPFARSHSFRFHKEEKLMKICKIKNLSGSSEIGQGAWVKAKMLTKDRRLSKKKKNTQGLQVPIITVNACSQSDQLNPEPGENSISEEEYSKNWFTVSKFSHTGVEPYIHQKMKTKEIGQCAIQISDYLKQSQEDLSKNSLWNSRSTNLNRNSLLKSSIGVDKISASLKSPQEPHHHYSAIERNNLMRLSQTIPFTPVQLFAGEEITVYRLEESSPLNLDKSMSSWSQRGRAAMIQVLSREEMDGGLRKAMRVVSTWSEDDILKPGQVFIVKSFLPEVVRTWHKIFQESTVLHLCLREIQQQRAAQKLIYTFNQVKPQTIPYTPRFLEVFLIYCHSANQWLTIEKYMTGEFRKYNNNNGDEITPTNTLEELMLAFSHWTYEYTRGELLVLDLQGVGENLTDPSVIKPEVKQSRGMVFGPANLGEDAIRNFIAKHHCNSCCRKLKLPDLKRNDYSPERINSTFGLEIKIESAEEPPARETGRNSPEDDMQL

Row | SMILES | IC50 [1] [mM] | % inhibition at 154 mM [2] [%] | IC50 [3] [mM]
1 | I [iodide] | 31 ± 3 | 52 | 
2 | Cl [chloride] |  |  | 99 ± 9
3 | Br [bromide] |  |  | 88 ± 6
